In ChEMBL document CHEMBL5604063, “ASAP - DENV-2 NS2B-NS3 protease fluorescence dose response” (2024):
Values joined by “and” are separate entries in the source; they are usually repeats but may differ in a detail not shown here. Equal entries are not always repeated.

What was measured:
Genome polyprotein [1] = target: T1, Genome polyprotein (dengue virus type 2, UniProt P29990); assay type: functional, Thailand/16681/1984
Genome polyprotein [2] = target: T1, Genome polyprotein; assay type: functional, Thailand/16681/1984; remark: listed apart in the source

T1 sequence (P29990 1346-1475 limits assumed): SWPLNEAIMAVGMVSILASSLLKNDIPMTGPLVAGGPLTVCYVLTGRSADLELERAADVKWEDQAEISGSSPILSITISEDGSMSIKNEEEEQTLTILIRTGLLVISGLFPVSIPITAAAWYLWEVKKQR
T1 sequence (P29990 1476-2093 limits assumed): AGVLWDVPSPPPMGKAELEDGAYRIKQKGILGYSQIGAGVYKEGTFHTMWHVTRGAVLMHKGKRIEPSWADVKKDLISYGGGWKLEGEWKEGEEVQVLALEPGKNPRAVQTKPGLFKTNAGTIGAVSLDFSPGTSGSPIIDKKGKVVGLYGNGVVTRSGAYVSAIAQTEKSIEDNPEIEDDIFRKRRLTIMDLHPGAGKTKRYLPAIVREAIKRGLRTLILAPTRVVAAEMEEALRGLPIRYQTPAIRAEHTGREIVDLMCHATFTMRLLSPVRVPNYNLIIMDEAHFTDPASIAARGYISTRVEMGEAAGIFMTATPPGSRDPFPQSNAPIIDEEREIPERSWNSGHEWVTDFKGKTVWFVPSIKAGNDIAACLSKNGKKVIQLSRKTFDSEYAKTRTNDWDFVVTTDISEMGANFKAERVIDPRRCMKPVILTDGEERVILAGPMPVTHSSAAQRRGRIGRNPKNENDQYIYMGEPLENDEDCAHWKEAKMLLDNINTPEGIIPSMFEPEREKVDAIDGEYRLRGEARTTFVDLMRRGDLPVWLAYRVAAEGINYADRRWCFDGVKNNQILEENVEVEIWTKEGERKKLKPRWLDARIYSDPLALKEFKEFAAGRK

SMILES | IC50 (Genome polyprotein [1]) | IC50 (Genome polyprotein [2])
Cn1nc([C@H](C#N)Nc2cccc([C@H]3CCOC3)c2)cc1C1CC1 | > 100 µM | > 99.5 µM
O=C(O)c1ccc(-c2cc(NC(=O)c3cc(F)cc4[nH]ncc34)cc3c2CNC3)cc1 | 54.7 µM and 75 µM | 75.4 µM
NCCc1csc2cc(C(=O)Nc3cc([C@H]4CCOC4)ccn3)ccc12 | > 100 µM | > 99.5 µM
O=C(Nc1ccc2c(c1)CNC2)c1cc(F)cc(-c2cn[nH]c2)c1 | 74.7 µM | > 99.5 µM
O=C(Nc1ccc2c(c1)CNC2)c1cc(F)cc(-c2ccnc3c2CCO3)c1 | > 100 µM | 83.8 µM
COc1ccc(OC)c([C@H]2CCCN2C(=O)Nc2ccc3c(c2)CNC3)c1 | > 100 µM | > 99.5 µM
Fc1cc(CNc2ccc3c(n2)CNC3)c2cn[nH]c2c1 | > 100 µM | > 99.5 µM
Cc1c(C(=O)Nc2ccc3c(c2)CCS3(=O)=O)cc(C2CC2)n1C | > 100 µM | > 99.5 µM
N#Cc1cccc(-c2nc3c(C(=O)Nc4ccc5c(c4)CNC5)cc(F)cc3[nH]2)c1 | 10.9 µM and 29.7 µM | 6.2 µM and 4.83 µM
COC[C@]1(c2nc3c(C(=O)Nc4ccc5c(c4)CNC5)cc(F)cc3[nH]2)CCOC1 | > 100 µM | > 99.5 µM
CC(=O)N1CCCc2cc(NC(=O)c3cc(C4CC4)n(C)c3C)ccc21 | > 100 µM | > 99.5 µM
N#Cc1c[nH]c2ccc(C(=O)Nc3ccc4c(c3)CNC4)cc12 | > 100 µM | > 99.5 µM
CNC(=O)[C@H](Nc1ccc2c(c1)CNC2)c1cc(Cl)cc2[nH]c(-c3ccccc3)nc12 | 21.2 µM and 23.2 µM | 49.6 µM
CC(C)Cn1cc2c(C(=O)Nc3ccc4c(c3)CNC4)cc(Cl)cc2n1 | > 100 µM | > 99.5 µM
O=C(Nc1ccc2c(c1)CNC2)c1cc(Cl)cc2nn(C3CCOCC3)cc12 | > 100 µM | 90.2 µM
O=C(NCCCF)[C@H](Nc1ccc2c(c1)CNC2)c1cc(Cl)cc(C2CC2)c1 | > 100 µM | > 99.5 µM
O=C(Nc1ccc2c(c1)CNC2)c1cc(F)cc(-c2ccc3c(=O)[nH]ncc3c2)c1 | 36 µM and 33.9 µM | 25 µM and 22.8 µM
O=C(Nc1ccc2c(c1)CNC2)c1ccc2ncsc2n1 | > 100 µM | > 99.5 µM
CC(C)n1cc(C(=O)Nc2cc(-c3cccnc3)ccn2)cn1 | > 100 µM | > 99.5 µM
O=C(Nc1ccc2c(c1)CNC2)c1cc(Cl)cc2nn(C3COC3)cc12 | > 100 µM | > 99.5 µM
Nc1n[nH]c2cc(C(=O)Nc3ccc4c(c3)CNC4)ccc12 | > 100 µM | > 99.5 µM

SMILES | IC50 (Genome polyprotein [1]) | IC50 (Genome polyprotein [2])
O=C(Nc1cc(-c2cccnc2)ccn1)c1cn2c(n1)CCC2 | > 100 µM | > 99.5 µM
CC(C)NC(=O)[C@H](Nc1ccc2c(c1)CN(C)C2(C)C)c1cc(Cl)cc2[nH]ncc12 | 28.2 µM | 98.9 µM
O=C(NCCOCC1CC1)[C@H](Nc1ccc2c(c1)CNC2)c1cc(Cl)cc(C2CC2)c1 | > 100 µM | > 99.5 µM
CC1(c2nc(C(=O)Nc3cc(-c4cccnc4)ccn3)no2)CC1 | > 100 µM | > 99.5 µM
COC(=O)c1cc(C(=O)Nc2ccc3c(c2)CNC3)cc2[nH]ccc12 | > 100 µM | > 99.5 µM
O=C(Nc1ccc2c(c1)CN[C@H]2c1ccccc1)c1cc(F)cc2[nH]ncc12 | 65.9 µM | > 99.5 µM
N#Cc1cc2c(cc1NC(=O)c1cc(F)cc3[nH]ncc13)CNC2 | 16.3 µM and 32 µM | 32.5 µM and 25.1 µM
Cc1c(C(=O)Nc2cc(-c3cccnc3)ccn2)cc(C#N)n1C | 53.3 µM and 62.1 µM | 57.7 µM
O=C(Nc1ccc2c(c1)CNC2)c1cccc2c1[C@]1(CCNC1)C(=O)N2 | > 100 µM | > 99.5 µM
Cc1ncc(-c2cc(F)cc(C(=O)Nc3ccc4c(c3)CNC4)c2)s1 | > 100 µM | > 99.5 µM
CC1=C(c2cc(F)cc(C(=O)Nc3ccc4c(c3)CNC4)c2)CCCC1 | > 100 µM | > 99.5 µM
CCOc1cccc(-c2cccc(NC(=O)c3cc(C4CC4)n(C)c3C)n2)c1 | > 100 µM | > 99.5 µM
Fc1cc(CNc2ccc3c(c2)CNC3)c2cc[nH]c2c1 | > 100 µM | > 99.5 µM
C=Cc1cc2c(cc1NC(=O)c1cc(F)cc3[nH]ncc13)CNC2 | 32.8 µM | 52.7 µM
O=C(Nc1ccc2c(c1)CNC2)c1cc(F)cc2[nH]c(-c3ccccc3F)nc12 | 18.5 µM and 33.8 µM | 7.91 µM and 4.23 µM
Cc1nn(C)c(C)c1[C@H]1CCCN1C(=O)Nc1ccc2c(c1)CNC2 | > 100 µM | > 99.5 µM
C#C[C@H](Nc1cc([C@H]2CCOC2)ccn1)c1cc(C2CC2)n(C)n1 | > 100 µM | > 99.5 µM
CC(C)NC(=O)[C@H](Nc1ccc2c(c1)CN(CC(F)F)C2)c1cc(Cl)cc2[nH]ncc12 | > 100 µM | > 99.5 µM
O=C(Nc1ccc2c(c1)CNC2)c1cc(F)cc(/C=C/c2ccccc2)c1 | 57.3 µM | 42.1 µM
O=C(Nc1ccc2c(c1)CN[C@H]2CCO)c1cc(F)cc2[nH]ncc12 | 23.9 µM and 29.9 µM | 50.8 µM
CCc1cccc(-c2nc3c(C(=O)Nc4ccc5c(c4)CNC5)cc(F)cc3[nH]2)c1 | 88.9 µM and > 100 µM | 14.5 µM and 7.53 µM

SMILES | IC50 (Genome polyprotein [1]) | IC50 (Genome polyprotein [2])
O=C(Nc1ccc2c(c1)CNC2)c1cc(F)cc2[nH]c(-c3ccc(F)cc3)nc12 | 9.17 µM and 43.9 µM | 4.84 µM and 4.4 µM
O=C(O)CCCc1cc(NC(=O)c2cc(F)cc3[nH]ncc23)cc2c1CNC2 | 48.7 µM | > 99.5 µM
Cc1ccc(NC(=O)c2cc(C3CC3)n(C)c2C)cc1-c1cccnc1 | > 100 µM | > 99.5 µM
Cc1cc(-c2cc(F)cc(C(=O)Nc3ccc4c(c3)CNC4)c2)[nH]n1 | > 100 µM | > 99.5 µM
O=C(Nc1ccc2c(c1)CNC2)c1cc(Cl)cc2c1cnn2C1CCOCC1 | > 100 µM | > 99.5 µM
Cn1cc2c(C(=O)Nc3ccc4c(c3)CNC4)cc(Cl)cc2n1 | > 100 µM | > 99.5 µM
C=CC[C@H]1NCc2cc(N[C@H](C(=O)NCC(F)F)c3cc(Cl)cc(C4CC4)c3)ccc21 | > 100 µM | > 99.5 µM
COCCN1C(=O)CCc2cc(NC(=O)c3cc(C4CC4)n(C)c3C)ccc21 | > 100 µM | > 99.5 µM
O=C(Nc1cc(-c2cccnc2)ccn1)c1cnn2c1CCCC2 | 16.5 µM and 19.7 µM | 18 µM and 13.8 µM
CC(C)(c1nc2c(C(=O)Nc3ccc4c(c3)CNC4)cc(F)cc2[nH]1)S(C)(=O)=O | 34.3 µM and 51.7 µM | 33.6 µM and 26.3 µM
NCCc1csc2cc(C(=O)Nc3ccc4c(c3)CNC4)ccc12 | > 100 µM | > 99.5 µM
O=C(Nc1ccc2c(c1)CN[C@H]2C[C@H](O)CO)c1cc(Cl)cc2[nH]ncc12 | 80.2 µM | > 99.5 µM
Cn1c(=O)[nH]c2cc(C(=O)Nc3ccc4c(c3)CNC4)cc(Br)c21 | 60 µM and 52.9 µM | > 99.5 µM
O=C(Nc1cc(-c2cccnc2)ccn1)c1cc(C2CC2)oc1C1CC1 | > 100 µM | > 99.5 µM
O=C(Nc1cc2c(c(C3=CCS(=O)(=O)CC3)c1)CNC2)c1cc(F)cc2[nH]ncc12 | 34.6 µM and 46.6 µM | 41.1 µM and 29.7 µM
O=C(Nc1cc2c(c(-c3ccnnc3)c1)CNC2)c1cc(Cl)cc2[nH]ncc12 | 98.4 µM | > 99.5 µM
O=C(Nc1cc(-c2cccnc2)ccn1)c1sc2c(c1Br)CNC2 | > 100 µM | > 99.5 µM
O=C(Nc1ccc2c(c1)CNC2)c1cc(F)cc(-c2ccncc2)c1 | > 100 µM | > 99.5 µM
O=C(Nc1cc2c(c(C3=CCOCC3)c1)CNC2)c1cc(F)cc2[nH]ncc12 | 27.2 µM and 45.2 µM | 29.7 µM and 19.8 µM
